Assay results reported in patent US7195890B2, “Methods and compositions for modulating proteins modified in preconditioning against ischemia/hypoxia” (Queen's University at Kingston, priority 2003, dated 2007).

System: rabbit ventricular myocytes
Assay: Two-dimensional gel electrophoresis proteomic analysis of protein modifications in pharmacologically preconditioned isolated ventricular myocytes
Format: cell-based
Details: 100 μmol/L, 60 minutes, 37° C.; for level of ADP ribosyl hydrolase: drug treated extracts relative to matching control extracts
Text: Protein modifications occurring during preconditioning were identified by a multi-tiered two-dimensional gel electrophoresis approach (see FIG. 3) and subsequent analysis of the cytoplasmic and TFA extracts of adenosine and diazoxide-treated isolated cardiomyocytes (n=4) at concentrations capable of invoking preconditioning. […] The modified proteins identified herein are referred to as preconditioning proteins. Ventricular myocytes from New Zealand White rabbits (weighing 1 to 2 kg) were isolated by collagenase dissociation, as described previously by Liu et al. (Circ. Res. 1996 78:443–454). Hearts were excised, then perfused with collagenase (1.0 mg/mL, Worthington type II) for 14 minutes at a maintained perfusion pressure of 75 mm Hg on a Langendorff apparatus, yielding>50% Ca^2+-tolerant ventricular myocytes. Cell isolation was followed directly by pharmacological preconditioning, which was carried out by treatment with 100 μmol/L adenosine (Sigma) or with 100 μmol/L diazoxide (Sigma) for 60 minutes in a 37° C. water bath, as described previously by Liu et al. supra. Untreated cells were prepared concurrently as drug-free controls. Equivalent 25 μL aliquots of cells (containing ˜30 mg/mL of protein as determined by Lowry assay (Lowry, O. H. J. Biol. Chem. 1951 193:265–275) were frozen and stored at −80° C. until analysis. All steps in this Protein extraction protocol, referred to herein as “In Sequence” and depicted in FIG. 3, produce physiological pH (cytosolic) and acidic pH enriched extracts were carried out at 4° C., and all centrifugations were conducted at 16000×g for 2 minutes at 4° C. Myocyte proteins were first extracted by two rounds of homogenization in 100 μL of HEPES extraction buffer, consisting of (in mmol/L) HEPES 25 (pH 7.4), NaF 50, Na3VO4 0.25, phenylmethylsulfonyl fluoride 0.25, EDTA 0.5, and (in μmol/L) leupeptin 1.25, pepstatin A 1.25. Following homogenization and centrifugation, the supernatants were pooled and saved as the cytosolic extract. The remaining pellet was subjected to further extraction by two rounds of homogenization in 50 μL of acid extraction buffer, consisting of 1% v/v trifluoroacetic acid (TFA) and 1 mmol/L Tris(2-carboxyethylphosphine)hydrochloride (pH ˜2.0). Supernatants were again pooled, and saved as the acid extract. The two extracts and remaining pellet were frozen and stored at −80° C. Isoelectric focusing (IEF) of cytosolic and TFA extracts were carried out using a Protean® IEF cell (Bio-Rad) according to the manufacturer's protocol. Protein loads ranging from 5 up to 250 μg per gel were added to the following rehydration buffers: for cytosolic extracts, 8 M urea, 2.5 M thiourea, 4% CHAPS, 2 mM EDTA, and 25 mM DTT, and in the case of pH 6–9 strips, CHAPS and DTT were substituted by 4% ASB-14 and 5.4% (w/v) 2-hydroxyethyl disulfide, respectively; for acidic extracts, 8 M urea, 4% CHAPS, and 25 mM DTT. Immobilized pH gradient (IPG) Ready Strips™ (170 mm pH 4–7, 6–9, or 3–10 linear gradient, Bio-Rad) were actively rehydrated at 50 volts (V) for 10 hours to enhance protein uptake, then subjected to the following conditions using a rapid voltage ramping method: 100 V for 25 Volt-hours (Vh), 500 V for 125 Vh, 1000 V for 250 Vh, and 8000 V for 65 kVh. A Peltier temperature control platform maintained gels at 20° C. throughout IEF. Focused gels were stored at −20° C. prior to sodium dodecyl sulfate-polyacrylamide gel electrophoresis (SDS-PAGE). For SDS-PAGE, IPG strips were incubated for 10 minutes in equilibration buffer (50 mmol/L Tris-HCl, pH 8.8, 6 mol/L urea, 30% v/v glycerol, 2% w/v SDS) supplemented with 10 mg/mL DTT, followed by a 10 minute incubation in equilibration buffer supplemented with 25 mg/mL iodoacetamide, then rinsed once with SDS-PAGE buffer (25 mmol/L Tris, 192 mmol/L glycine, pH 8.3, 0.1% w/v SDS). IEF strips were then embedded in a 5% acrylamide stacking gel and the proteins were resolved by 10 or 12.5% SDS-PAGE using a Protean® II XL system (Bio-Rad). […]

[1] = 2-D gels vs untreated control myocytes, n=4

**Q.** Which results are given for `Nc1ncnc2c1ncn2[C@@H]1O[C@H](CO)[C@@H](O)[C@H]1O` [adenosine]?
**A.** level of 24 kDa subunit (mitochondrial precursor) of Complex I [1]: increases; level of 30 kDa subunit (mitochondrial precursor) of Complex I [1]: increases; level of HSP27 [1]: did not, however, observe a change; level of NG-dimethylarginine dimethylaminohydrolase (DDAH) [1]: decreases; level of RNA binding protein regulatory subunit (DJ-1) [1]: increased; level of aldehyde dehydrogenase [1]: increased; level of core protein I of Complex III [1]: decreased; level of isocitrate dehydrogenase NAD+ specific subunit alpha (IDH) [1]: increase; level of metaxin 2 [1]: reduced; level of prohibitin [1]: increase; level of succinyl CoA ligase [ADP forming] beta chain [1]: increase; level of δ chain (mitochondrial precursor) of the F1 portion of Complex V [1]: increases; extent of post-translational modification of the β chain of F1 portion (mitochondrial precursor) of Complex V (2-D gels, silver stain or western blot, vs control, two additional more acidic spots): increase; level of ADP ribosyl hydrolase: increased

**Q.** `CC1=NS(=O)(=O)c2cc(Cl)ccc2N1` [diazoxide] was tested. Which “level of 23 kDa subunit (mitochondrial precursor) of Complex I” value [1] did it give?
**A.** increased

**Q.** And the “level of 24 kDa subunit (mitochondrial precursor) of Complex I” value [1]?
**A.** increased

**Q.** What about the “level of 30 kDa subunit (mitochondrial precursor) of Complex I” value [1] of the same compound?
**A.** increased

**Q.** And the “level of HSP27” value [1]?
**A.** increase

**Q.** And the “level of NG-dimethylarginine dimethylaminohydrolase (DDAH)” value [1]?
**A.** increased

**Q.** What about the “level of RNA binding protein regulatory subunit (DJ-1)” value [1] of the same compound?
**A.** increased

**Q.** What about the “level of aldehyde dehydrogenase” value [1] of the same compound?
**A.** increased

**Q.** And the “level of core protein I of Complex III” value [1]?
**A.** decreased

**Q.** And the “level of d chain (mitochondrial precursor) of the F0 portion of Complex V” value [1]?
**A.** increased

**Q.** What about the “level of dihydrolipoamide succinyltransferase” value [1] of the same compound?
**A.** decrease

**Q.** What about the “level of isocitrate dehydrogenase NAD+ specific subunit alpha (IDH)” value [1] of the same compound?
**A.** increases

**Q.** What about the “level of metaxin 2” value [1] of the same compound?
**A.** reduced

**Q.** And the “level of δ chain (mitochondrial precursor) of the F1 portion of Complex V” value [1]?
**A.** increased

**Q.** What about the “post-translational modification of protein X (E3 binding protein of the pyruvate dehydrogenase complex)” value [1] of the same compound?
**A.** increases

**Q.** What about the “sarcalumenin (58 kDa isoform) levels” value (HEPES extract, 2-D gels vs untreated control myocytes) of the same compound?
**A.** decrease

**Q.** What about the “level of ADP ribosyl hydrolase” value of the same compound?
**A.** increased
